Measured values published in PubChem BioAssay (NCI).
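96-well plates; 48 h exposure; 5 concentrations. Endpoints by linear interpolation between flanking doses. Not reached: highest tested concentration assigned. At the GI50, growth is halved. TGI denotes the concentration required for complete inhibition of growth.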

What was measured:
Assay in all cases: DTP human tumour cell line panel, 48 h
PC-3 prostate = test system: PC-3 prostate
COLO 205 colon = test system: COLO 205 colon
UO-31 renal = test system: UO-31 renal
SW-620 colon = test system: SW-620 colon
OVCAR-3 ovarian = test system: OVCAR-3 ovarian
SR leukemia = test system: SR leukemia
SK-MEL-2 melanoma = test system: SK-MEL-2 melanoma
LOX IMVI melanoma = test system: LOX IMVI melanoma
MDA-MB-231 breast = test system: MDA-MB-231 breast
HCC-2998 colon = test system: HCC-2998 colon
NCI-H460 lung = test system: NCI-H460 lung
MALME-3M melanoma = test system: MALME-3M melanoma
SF-539 CNS = test system: SF-539 CNS
A498 renal = test system: A498 renal
M14 melanoma = test system: M14 melanoma
DU-145 prostate = test system: DU-145 prostate
HL-60(TB) leukemia = test system: HL-60(TB) leukemia
MDA-MB-435 = test system: MDA-MB-435
MDA-MB-468 breast = test system: MDA-MB-468 breast
OVCAR-4 ovarian = test system: OVCAR-4 ovarian
A549 NSCLC = test system: A549 NSCLC
OVCAR-5 ovarian = test system: OVCAR-5 ovarian
SK-MEL-5 melanoma = test system: SK-MEL-5 melanoma
SK-OV-3 ovarian = test system: SK-OV-3 ovarian
786-0 renal = test system: 786-0 renal
SF-268 CNS = test system: SF-268 CNS
NCI-H522 lung = test system: NCI-H522 lung
HCT-116 colon = test system: HCT-116 colon
CCRF-CEM leukemia = test system: CCRF-CEM leukemia
UACC-257 melanoma = test system: UACC-257 melanoma
SF-295 CNS = test system: SF-295 CNS
K-562 leukemia = test system: K-562 leukemia
NCI-H23 lung = test system: NCI-H23 lung
RXF 393 renal = test system: RXF 393 renal
BT-549 breast = test system: BT-549 breast
OVCAR-8 ovarian = test system: OVCAR-8 ovarian
HT29 colon = test system: HT29 colon
RPMI-8226 leukemia = test system: RPMI-8226 leukemia
HOP-92 NSCLC = test system: HOP-92 NSCLC
SK-MEL-28 melanoma = test system: SK-MEL-28 melanoma
ACHN renal = test system: ACHN renal
SNB-75 CNS = test system: SNB-75 CNS
IGROV1 ovarian = test system: IGROV1 ovarian
EKVX NSCLC = test system: EKVX NSCLC
HCT-15 colon = test system: HCT-15 colon
NCI-H226 lung = test system: NCI-H226 lung
MOLT-4 leukemia = test system: MOLT-4 leukemia
UACC-62 melanoma = test system: UACC-62 melanoma
SNB-19 CNS = test system: SNB-19 CNS
HOP-62 NSCLC = test system: HOP-62 NSCLC
NCI/ADR-RES ovarian = test system: NCI/ADR-RES ovarian
HS 578T breast = test system: HS 578T breast
CAKI-1 renal = test system: CAKI-1 renal
TK-10 renal = test system: TK-10 renal
MCF7 breast = test system: MCF7 breast
KM12 colon = test system: KM12 colon
U251 CNS = test system: U251 CNS
SN12C renal = test system: SN12C renal

In the case of `O=C(Nc1ccc(OCc2ccccc2)cc1)Nc1ccc(Cl)c(C(F)(F)F)c1`, the GI50 (PC-3 prostate) is reported as 1.78 µM, the TGI (PC-3 prostate) is reported as 7.16 µM and the GI50 (COLO 205 colon) is reported as 1.67 µM. The TGI (COLO 205 colon) was 4.25 µM, the GI50 (UO-31 renal) was 1.6 µM and the TGI (UO-31 renal) was 5.31 µM. The GI50 (SW-620 colon) was 2 µM, the TGI (SW-620 colon) was 11.2 µM and the GI50 (OVCAR-3 ovarian) was 1.61 µM. It also gave a TGI (OVCAR-3 ovarian) of 4.96 µM, a GI50 (SR leukemia) of 2.19 µM and a TGI (SR leukemia) of 13.2 µM. The GI50 (SK-MEL-2 melanoma) was 1.51 µM, the TGI (SK-MEL-2 melanoma) was 3.65 µM and the GI50 (LOX IMVI melanoma) was 2.02 µM. The TGI (LOX IMVI melanoma) was 7.36 µM, the GI50 (MDA-MB-231 breast) was 2.58 µM and the TGI (MDA-MB-231 breast) was 11.1 µM. The GI50 (HCC-2998 colon) was 2.19 µM, the TGI (HCC-2998 colon) was 29.8 µM and the GI50 (NCI-H460 lung) was 1.69 µM. The TGI (NCI-H460 lung) was 5.61 µM, the GI50 (MALME-3M melanoma) was 1.54 µM and the TGI (MALME-3M melanoma) was 4.36 µM. The GI50 (SF-539 CNS) was 2.34 µM, the TGI (SF-539 CNS) was 9.41 µM and the GI50 (A498 renal) was 1.24 µM. The TGI (A498 renal) was 3.9 µM, the GI50 (M14 melanoma) was 2.17 µM and the TGI (M14 melanoma) was greater than 64.3 µM. The GI50 (DU-145 prostate) was 2.28 µM, the TGI (DU-145 prostate) was 21.1 µM and the GI50 (HL-60(TB) leukemia) was 1.54 µM. For the same compound, the TGI (HL-60(TB) leukemia) was 7.77 µM, the GI50 (MDA-MB-435) was 1.98 µM and the TGI (MDA-MB-435) was 27.2 µM. The GI50 (MDA-MB-468 breast) was 1.42 µM, the TGI (MDA-MB-468 breast) was 4.12 µM and the GI50 (OVCAR-4 ovarian) was 2.37 µM. The TGI (OVCAR-4 ovarian) was 27 µM, the GI50 (A549 NSCLC) was 1.83 µM and the TGI (A549 NSCLC) was 15.2 µM. It also gave a GI50 (OVCAR-5 ovarian) of 3.25 µM, a TGI (OVCAR-5 ovarian) of 58.3 µM and a GI50 (SK-MEL-5 melanoma) of 2.14 µM. For the same compound, the TGI (SK-MEL-5 melanoma) was 8.25 µM, the GI50 (SK-OV-3 ovarian) was 1.81 µM and the TGI (SK-OV-3 ovarian) was 4.99 µM. For the same compound, the GI50 (786-0 renal) was 2.09 µM, the TGI (786-0 renal) was 9.89 µM and the GI50 (SF-268 CNS) was 2.28 µM. The TGI (SF-268 CNS) was greater than 64.3 µM, the GI50 (NCI-H522 lung) was 1.29 µM and the TGI (NCI-H522 lung) was 3.52 µM. The GI50 (HCT-116 colon) was 1.9 µM, the TGI (HCT-116 colon) was 11.5 µM and the GI50 (CCRF-CEM leukemia) was 1.69 µM. For the same compound, the TGI (CCRF-CEM leukemia) was 5.2 µM, the GI50 (UACC-257 melanoma) was 1.4 µM and the TGI (UACC-257 melanoma) was 5.67 µM. The GI50 (SF-295 CNS) was 1.76 µM, the TGI (SF-295 CNS) was 5.44 µM and the GI50 (K-562 leukemia) was 2.34 µM. It also gave a TGI (K-562 leukemia) greater than 64.3 µM, a GI50 (NCI-H23 lung) of 1.5 µM and a TGI (NCI-H23 lung) of 4.39 µM. The GI50 (RXF 393 renal) was 4.53 µM, the TGI (RXF 393 renal) was 41.2 µM and the GI50 (BT-549 breast) was 1.62 µM. For the same compound, the TGI (BT-549 breast) was 4.68 µM, the GI50 (OVCAR-8 ovarian) was 2.1 µM and the TGI (OVCAR-8 ovarian) was 41.3 µM. For the same compound, the GI50 (HT29 colon) was 2.25 µM, the TGI (HT29 colon) was 10.2 µM and the GI50 (RPMI-8226 leukemia) was 1.69 µM. For the same compound, the TGI (RPMI-8226 leukemia) was 7.56 µM, the GI50 (HOP-92 NSCLC) was 1.34 µM and the TGI (HOP-92 NSCLC) was 3.83 µM. It also gave a GI50 (SK-MEL-28 melanoma) of 2.02 µM, a TGI (SK-MEL-28 melanoma) greater than 64.3 µM and a GI50 (ACHN renal) of 1.76 µM. It also gave a TGI (ACHN renal) of 4.93 µM, a GI50 (SNB-75 CNS) of 1.79 µM and a TGI (SNB-75 CNS) of 6.18 µM. The GI50 (IGROV1 ovarian) was 2.57 µM, the TGI (IGROV1 ovarian) was greater than 64.3 µM and the GI50 (EKVX NSCLC) was 1.91 µM. For the same compound, the TGI (EKVX NSCLC) was 7.09 µM, the GI50 (HCT-15 colon) was 2 µM and the TGI (HCT-15 colon) was 14 µM. The GI50 (NCI-H226 lung) was 2 µM, the TGI (NCI-H226 lung) was 7.03 µM and the GI50 (MOLT-4 leukemia) was 2.5 µM. It also gave a TGI (MOLT-4 leukemia) of 18.1 µM, a GI50 (UACC-62 melanoma) of 1.82 µM and a TGI (UACC-62 melanoma) of 11 µM. The GI50 (SNB-19 CNS) was 2.01 µM, the TGI (SNB-19 CNS) was 14.1 µM and the GI50 (HOP-62 NSCLC) was 2.11 µM. It also gave a TGI (HOP-62 NSCLC) of 41.1 µM, a GI50 (NCI/ADR-RES ovarian) of 1.94 µM and a TGI (NCI/ADR-RES ovarian) of 7.23 µM. For the same compound, the GI50 (HS 578T breast) was 1.9 µM, the TGI (HS 578T breast) was 15.7 µM and the GI50 (CAKI-1 renal) was 1.61 µM. For the same compound, the TGI (CAKI-1 renal) was 5.46 µM, the GI50 (TK-10 renal) was 2.4 µM and the TGI (TK-10 renal) was 30.1 µM. The GI50 (MCF7 breast) was 1.81 µM, the TGI (MCF7 breast) was 6.77 µM and the GI50 (KM12 colon) was 2.1 µM. It also gave a TGI (KM12 colon) of 12 µM, a GI50 (U251 CNS) of 2 µM and a TGI (U251 CNS) of 6.59 µM. The GI50 (SN12C renal) was 1.75 µM and the TGI (SN12C renal) was 6.71 µM.
